Reference: paper PMC7179259, “Safety, Tolerability, Pharmacokinetics, and Antimalarial Activity of the Novel Plasmodium Phosphatidylinositol 4-Kinase Inhibitor MMV390048 in Healthy Volunteers” (Antimicrobial Agents and Chemotherapy, 2020)

Assays:
[1] = system: P. falciparum 3D7; assay: Induced blood-stage malaria (IBSM) study: antimalarial activity (parasitemia by qPCR); format: in vivo, Plasmodium falciparum; conditions: 20 mg single dose
Procedure: (§1) (ii) IBSM study. The dose of MMV390048 chosen (20 mg) was based on the pharmacokinetic, safety, and tolerability data available from the first-in-human study at the time the IBSM study commenced (when 5- and 20-mg-dose cohorts of the first-in-human study had been completed). This dose was below the estimated single dose required to achieve complete cure calculated from preclinical studies (80 to 100 mg) since recrudescence allows for characterization of the pharmacokinetic/pharmacodynamic relationship between MMV390048 and P. falciparum parasitemia. Subjects were inoculated intravenously on day 0 with erythrocytes infected with ∼1,800 viable chloroquine-sensitive P. falciparum 3D7 parasites ([17]). Fasted (≥8 h) subjects were dosed with MMV390048 when they reached the parasitemia threshold for treatment (∼1,000 parasites ml^−1) and were followed up until the end-of-study visit on day 28.
Parasitemia was monitored by collecting blood samples and performing quantitative PCR (qPCR) targeting the gene encoding P. falciparum 18S rRNA ([20]). Blood samples were collected daily from day 4 until parasites were detectable; twice daily until MMV390048 dosing; before MMV390048 dosing and 2, 4, 8, 12, 16, 20, 24, 30, 36, 48, 60, and 72 h after MMV390048 dosing; twice daily until parasitemia was not detected over a 48-h period; 3 times per week until artemether-lumefantrine treatment; and then at the end of the study (day 28).

[2] = system: healthy subjects inoculated with blood-stage P. falciparum; assay: Induced blood-stage malaria (IBSM) study: safety; format: in vivo, human
Procedure: The second study was conducted at Q-Pharm (Brisbane, Australia) from 27 October 2014 to 19 December 2014. This was an IBSM, phase 1b, single-center, open-label study, in which a single dose of MMV390048 was administered to subjects previously inoculated with blood-stage P. falciparum. This study was planned to consist of two dose cohorts; however, a second cohort was not enrolled due to the high variability in pharmacokinetic profiles observed in the first cohort and in the first-in-human study (see Results). The IBSM study commenced when the first two dose cohorts of the first-in-human study had been completed. MMV390048 was administered in the first-in-human and IBSM studies in a powder-in-bottle formulation.
as §1
Safety endpoints were the incidence, severity, and relationship to the investigational product (and inoculum for the IBSM study) of observed and self-reported adverse events (AEs), and changes from baseline in physical examination, vital signs, standard electrocardiograms (ECGs), continuous ECGs (first-in-human study only), and laboratory evaluation (hematology, coagulation parameters, hemolysis panel, clinical chemistry, and urinalysis) findings. […] AE severity was evaluated according to the Common Terminology Criteria for Adverse Events version 4.03 ([18]) and the World Health Organization recommendations for grading acute and subacute toxic effects ([19]).

CS(=O)(=O)c1ccc(-c2cnc(N)c(-c3ccc(C(F)(F)F)nc3)c2)cc1 [MMV390048]
time to recrudescence after MMV390048 dosing ([1]; n = 2 subjects (highest exposure)): 7 days | time to recrudescence after MMV390048 dosing ([1]; n = 4 subjects): 2 days | parasitemia following administration ([1]; n = 6): decreased initially in all subjects | recrudescence ([1]; n = 6): observed in all subjects | AEs deemed related to malaria ([2]; 20 mg): 81.3% | No. (%) of subjects with adverse events: All AEs, Treatment related ([2]; 20 mg (n = 6)): 0 | No. (%) of subjects with adverse events: Grade 2 AEs ([2]; 20 mg (n = 6)): 3 (50) | No. (%) of subjects with adverse events: Grade 2 AEs, Treatment related ([2]; 20 mg (n = 6)): 0 | No. (%) of subjects with adverse events: Grade 3 AEs ([2]; 20 mg (n = 6)): 0 | No. (%) of subjects with adverse events: SAEs ([2]; 20 mg (n = 6)): 0 | No. of adverse events: All AEs ([2]; 20 mg (n = 6)): 32 | No. of adverse events: Grade 2 AEs ([2]; 20 mg (n = 6)): 9 | No. of adverse events: Grade 2 AEs, Treatment related ([2]; 20 mg (n = 6)): 0 | No. of adverse events: Grade 3 AEs ([2]; 20 mg (n = 6)): 0 | No. of adverse events: SAEs ([2]; 20 mg (n = 6)): 0 | AEs mild in severity ([2]; 20 mg, 23/32 AEs): 71.9% | headache (most common AE), cases ([2]; 20 mg, in 4 subjects): 7
